Laboratory results from patent publication US11524940B1, “Inhibitors of cysteine proteases and methods of use thereof” (priority 2020, dated 2022).
pEC50: −log10 of the molar value.

The compounds below were run against 229E Mpro (Human coronavirus 229E (HCoV-229E), UniProt P0C6X1) (assay: 229E Mpro activity). Conditions: 229E Mpro EC50.
Type: biochemical
Protocol: Compounds are assayed using standard methods to assess compound activity and IC50. […] The assay buffer contains 20 mM of Tris-HCl (pH 7.3), 100 mM of NaCl, 1 mM of EDTA, 5mM of TCEP and 0.1% BSA.

Chain of 229E Mpro (P0C6X1 2966-3267 limits assumed): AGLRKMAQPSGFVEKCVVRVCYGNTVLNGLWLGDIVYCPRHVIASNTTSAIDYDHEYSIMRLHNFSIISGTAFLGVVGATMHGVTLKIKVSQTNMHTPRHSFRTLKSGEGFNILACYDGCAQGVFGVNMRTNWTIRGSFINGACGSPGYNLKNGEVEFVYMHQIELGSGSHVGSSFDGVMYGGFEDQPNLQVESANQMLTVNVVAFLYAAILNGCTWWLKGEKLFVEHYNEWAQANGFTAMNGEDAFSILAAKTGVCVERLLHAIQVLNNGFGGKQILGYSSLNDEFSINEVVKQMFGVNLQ

`COCCOCCOc1cccc2[nH]c(C(=O)NC(CC(C)(C)C)C(=O)NC(C#N)CC3CCCNC3=O)cc12` (single isomer, unassigned) [875 (Isomer 2)] showed a pEC50 greater than 5.70.

Same assay, conditions: read-out: 229E Mpro EC50

First: COc1cccc2[nH]c(C(=O)N3CC4(CCOCC4)C[C@H]3C(=O)N[C@H](C#N)C[C@@H]3CCNC3=O)cc12 [Compound 387, N-((S)-1-cyano-2-((S)-2-oxopyrrolidin-3-yl)ethyl)-2-(4-methoxy-1H-indole-2-carbonyl)-8-oxa-2-azaspiro[4.5]decane-3-carboxamide]
Second: COc1cccc2[nH]c(C(=O)N3CC4(CCCCC4)CC3C(=O)N[C@H](C#N)C[C@@H]3CCCNC3=O)cc12 (single isomer, unassigned) [603a (Isomer 1)]
The pEC50 of the first is lower: less than 4.52 for the first, greater than 5.70 for the second. The second is the more potent here.

First: COc1cccc2[nH]c(C(=O)N3CC(C45CC(C4)C5)C[C@H]3C(=O)N[C@H](C#N)C[C@@H]3CCNC3=O)cc12 (single isomer, unassigned) [385 (Isomer 1)]
Second: CCO[C@@H]1C[C@@H](C(=O)N[C@H](C#N)C[C@@H]2CCNC2=O)N(C(=O)c2cc3c(OC)cccc3[nH]2)C1 [Compound 409, (2S,4R)-N-[(1S)-1-cyano-2-[(3S)-2-oxopyrrolidin-3-yl]ethyl]-4-ethoxy-1-(4-methoxy-1H-indole-2-carbonyl)pyrrolidine-2-carboxamide]
The pEC50 of the first is higher: greater than 5.70 for the first, less than 4.52 for the second.

`N#C[C@H](C[C@@H]1CCCNC1=O)NC(=O)[C@H](CC1CC1)NC(=O)c1cc2c(Cl)c(F)ccc2[nH]1` [Compound 822, 4-chloro-N-[(1S)-2-[[(1S)-1-cyano-2-[(3S)-2-oxo-3-piperidyl]ethyl]amino]-1-(cyclopropylmethyl)-2-oxo-ethyl]-5-fluoro-1H-indole-2-carboxamide] and `N#C[C@H](C[C@@H]1CCCNC1=O)NC(=O)[C@H](CC1CC1)NC(=O)c1cc2c(F)cc(Cl)cc2[nH]1` [Compound 838, 6-chloro-N-[(1S)-2-[[(1S)-1-cyano-2-[(3S)-2-oxo-3-piperidyl]ethyl]amino]-1-(cyclopropylmethyl)-2-oxo-ethyl]-4-fluoro-1H-indole-2-carboxamide] cannot be ordered by pEC50: greater than 5.70 for the first, greater than 5.70 for the second.

`COc1cccc2[nH]c(C(=O)N[C@@H](CC(C)C)C(=O)N[C@@H](C[C@@H]3CCNC3=O)C(C#N)N3CCCC3)cc12` (single isomer, unassigned) [331 (Isomer 2)] and `COc1cccc2[nH]c(C(=O)N[C@@H](CC(C)C)C(=O)N[C@@H](C[C@@H]3CCNC3=O)C(C#N)NC(C)(C)C)cc12` (single isomer, unassigned) [323 (Isomer 1)] cannot be ordered by pEC50: greater than 5.70 for the first, greater than 5.70 for the second.

`N#C[C@H](C[C@@H]1CCCNC1=O)NC(=O)[C@H](CC1CC1)NC(=O)c1cc2cc(Cl)cc(Cl)c2[nH]1` [Compound 842, 5,7-dichloro-N-[(1S)-2-[[(1S)-1-cyano-2-[(3S)-2-oxo-3-piperidyl]ethyl]amino]-1-(cyclopropylmethyl)-2-oxo-ethyl]-1H-indole-2-carboxamide] and `N#C[C@H](C[C@@H]1CCCNC1=O)NC(=O)[C@H](CC1CC1)NC(=O)c1cc2c(Cl)cc(Cl)cc2[nH]1` [Compound 840, 4,6-dichloro-N-[(1S)-2-[[(1S)-1-cyano-2-[(3S)-2-oxo-3-piperidyl]ethyl]amino]-1-(cyclopropylmethyl)-2-oxo-ethyl]-1H-indole-2-carboxamide] cannot be ordered by pEC50: greater than 5.70 for the first, greater than 5.70 for the second.

Going from `Cc1cc(C(=O)N[C@H]2CC[C@@H]3SC[C@@H](C(=O)N[C@H](C#N)C[C@@H]4CCNC4=O)N3C2=O)no1` [Compound 459, N-((3R,6S,8aS)-3-(((S)-1-cyano-2-((S)-2-oxopyrrolidin-3-yl)ethyl)carbamoyl)-5-oxohexahydro-2H-thiazolo[3,2-a]pyridin-6-yl)-5-methylisoxazole-3-carboxamide] to `N#C[C@H](C[C@@H]1CCNC1=O)NC(=O)[C@H](CC1CC1)NC(=O)c1cc2ccc(Cl)cc2[nH]1` [Compound 529, 6-chloro-N-[(1S)-2-[[(1S)-1-cyano-2-[(3S)-2-oxopyrrolidin-3-yl]ethyl]amino]-1-(cyclopropylmethyl)-2-oxo-ethyl]-1H-indole-2-carboxamide], the pEC50 rises from less than 4.52 to greater than 5.70.

`CC(C)(C)C[C@H](NC(=O)c1cc2c(Cl)cc(Cl)cc2[nH]1)C(=O)N[C@H](C#N)C[C@@H]1CCCNC1=O` [Compound 795, 4,6-dichloro-N-((S)-1-(((S)-1-cyano-2-((S)-2-oxopiperidin-3-yl)ethyl)amino)-4,4-dimethyl-1-oxopentan-2-yl)-1H-indole-2-carboxamide] and `N#C[C@H](C[C@@H]1CCCNC1=O)NC(=O)[C@H](CC1CC1)NC(=O)c1cc2c(Cl)cncc2[nH]1` [Compound 669, 4-chloro-N-((S)-1-(((S)-1-cyano-2-((S)-2-oxopiperidin-3-yl)ethyl)amino)-3-cyclopropyl-1-oxopropan-2-yl)-1H-pyrrolo[2,3-c]pyridine-2-carboxamide] cannot be ordered by pEC50: greater than 5.70 for the first, greater than 5.70 for the second.

Compared with `COc1cccc2[nH]c(C(=O)N[C@H](C(=O)N[C@H](C#N)C[C@@H]3CCNC3=O)C3Cc4ccccc4C3)cc12` [Compound 149, N-[(1S)-2-[[(1S)-1-cyano-2-[(3S)-2-oxopyrrolidin-3-yl]ethyl]amino]-1-indan-2-yl-2-oxo-ethyl]-4-methoxy-1H-indole-2-carboxamide], `COc1cccc2[nH]c(C(=O)N[C@H](C(=O)N[C@H](C#N)C[C@@H]3CCNC3=O)C3CC4CC4C3)cc12` (stereo partly drawn) [Compound 499] is higher in pEC50: 5.00 to 5.70 for the first, greater than 5.70 for the second.

Compared with `COc1cccc2[nH]c(C(=O)N[C@@H](CC(C)C)C(=O)N[C@@H](C[C@@H]3CCNC3=O)C(C#N)N3CCCC3)cc12` (single isomer, unassigned) [331 (Isomer 1)], `CCCNC(=O)OC(C#N)[C@H](C[C@@H]1CCNC1=O)NC(=O)[C@H](CC(C)C)NC(=O)c1cc2c(OC)cccc2[nH]1` (stereo partly drawn) [Compound 581] is lower in pEC50: greater than 5.70 for the first, less than 4.52 for the second.

`COc1ccc(Br)c2[nH]c(C(=O)N[C@@H](CC3CC3)C(=O)N[C@H](C#N)C[C@@H]3CCCNC3=O)cc12` [Compound 846] and `COc1cccc2[nH]c(C(=O)N[C@@H](CC3CC3)C(=O)N[C@H](C#N)C[C@@H]3CCCNC3=O)cc12` (single isomer, unassigned) [491 (Isomer 1)] cannot be ordered by pEC50: greater than 5.70 for the first, greater than 5.70 for the second.

`N#C[C@H](C[C@@H]1CCNC1=O)NC(=O)[C@H](CC1CC1)NC(=O)c1cc2c(Cl)ccc(Cl)c2[nH]1` [Compound 691, 4,7-dichloro-N-[(1S)-2-[[(1S)-1-cyano-2-[(3S)-2-oxopyrrolidin-3-yl]ethyl]amino]-1-(cyclopropylmethyl)-2-oxo-ethyl]-1H-indole-2-carboxamide] and `N#C[C@H](C[C@@H]1CCCNC1=O)NC(=O)[C@H](CC1CC1)NC(=O)c1cc2c(Cl)cccc2[nH]1` [Compound 812, 4-chloro-N-[(1S)-2-[[(1S)-1-cyano-2-[(3S)-2-oxo-3-piperidyl]ethyl]amino]-1-(cyclopropylmethyl)-2-oxo-ethyl]-1H-indole-2-carboxamide] cannot be ordered by pEC50: greater than 5.70 for the first, greater than 5.70 for the second.

Going from `COc1cccc2[nH]c(C(=O)N[C@@H](CC(C)C)C(=O)NC(C#N)Cc3cc(=O)[nH]c4ccccc34)cc12` (mixture of isomers) [Compound 237, N-[(1S)-1-[[1-cyano-2-(2-oxo-1H-quinolin-4-yl)ethyl]carbamoyl]-3-methyl-butyl]-4-methoxy-1H-indole-2-carboxamide] to `COc1cccc2[nH]c(C(=O)N[C@@H](CC(C)C)C(=O)N[C@H](/C=C/S(C)(=O)=O)C[C@@H]3CCNC3=O)cc12` [Compound 136, 4-methoxy-N-[(1S)-3-methyl-1-[[(E,1S)-3-methylsulfonyl-1-[[(3S)-2-oxopyrrolidin-3-yl]methyl]allyl]carbamoyl]butyl]-1H-indole-2-carboxamide], the pEC50 rises from less than 4.52 to greater than 5.70.

`N#C[C@H](C[C@@H]1CCNC1=O)NC(=O)C1CC2(CCCCC2)CN1C(=O)c1cc2ccc(Cl)cc2[nH]1` (single isomer, unassigned) [878 (Isomer 1)] and `N#C[C@H](C[C@@H]1CCNC1=O)NC(=O)C1CC2(CCCCC2)CN1C(=O)c1cc2cccc(Cl)c2[nH]1` (single isomer, unassigned) [984 (Isomer 1)] cannot be ordered by pEC50: greater than 5.70 for the first, greater than 5.70 for the second.

Compared with `N#C[C@H](C[C@@H]1CCNC1=O)NC(=O)[C@H](CC1CC1)N1CCc2cc[nH]c2C1=O` [Compound 267, (2S)-N-[(1S)-1-cyano-2-[(3S)-2-oxopyrrolidin-3-yl]ethyl]-3-cyclopropyl-2-(7-oxo-4,5-dihydro-1H-pyrrolo[2,3-c]pyridin-6-yl)propanamide], `N#C[C@H](C[C@@H]1CCNC1=O)NC(=O)[C@H](CC1CC1)N1CCC2(CCCN2)C1=O` (stereo partly drawn) [Compound 471, N-[(1S)-1-cyano-2-[(3S)-2-oxopyrrolidin-3-yl]ethyl]-3-cyclopropyl-2-(6-oxo-1,7-diazaspiro[4.4]nonan-7-yl)propanamide] is lower in pEC50: greater than 5.70 for the first, 4.52 to 5.00 for the second.

`COc1cccc2[nH]c(C(=O)N[C@@H](CC3CC3)C(=O)N[C@@]3(C#N)C[C@H]4CC[C@@H]3[C@H]3C(=O)NC(=O)[C@@H]43)cc12` (single isomer, unassigned) [489 (Isomer 1)] and `COc1cccc2[nH]c(C(=O)N[C@@H](CC(C)C)C(=O)N[C@@H](C[C@@H]3CCNC3=O)C3OC(=O)N(C(C)C)C3=N)cc12` (stereo partly drawn) [Compound 357, N-((2S)-1-(((1S)-1-(4-imino-3-isopropyl-2-oxooxazolidin-5-yl)-2-((S)-2-oxopyrrolidin-3-yl)ethyl)amino)-4-methyl-1-oxopentan-2-yl)-4-methoxy-1H-indole-2-carboxamide] cannot be ordered by pEC50: less than 4.52 for the first, less than 4.52 for the second.

First: CCCN1C(=N)C([C@H](C[C@@H]2CCNC2=O)NC(=O)[C@H](CC(C)C)NC(=O)c2cc3c(OC)cccc3[nH]2)OC1=O (stereo partly drawn) [Compound 355, N-((2S)-1-(((1 S)-1-(4-imino-2-oxo-3-propyloxazolidin-5-yl)-2-((S)-2-oxopyrrolidin-3-yl)ethyl)amino)-4-methyl-1-oxopentan-2-yl)-4-methoxy-1H-indole-2-carboxamide]
Second: N#C[C@H](C[C@@H]1CCNC1=O)NC(=O)[C@H](CC1CC1)NC(=O)c1nc2c(Cl)cc(Cl)cc2[nH]1 [Compound 525, 4,6-dichloro-N-[(1S)-2-[[(1S)-1-cyano-2-[(3S)-2-oxopyrrolidin-3-yl]ethyl]amino]-1-(cyclopropylmethyl)-2-oxo-ethyl]-1H-benzimidazole-2-carboxamide]
The pEC50 of the first is lower: 5.00 to 5.70 for the first, greater than 5.70 for the second. The second is the more potent here.
